Experiments:
Format in all cases: in vivo, human
[1] = tested on: healthy women of reproductive age; assay: Study 15818: hot flush events during treatment period; conditions: for Hot flush events, Events (%): 12 weeks
Text: Example 3: Hot Flush Event in Study Subject Treated with Compound 1 (Cp1)
See full study description in Example 2.
Hot flush event were reported and monitored during treatment period.

[2] = tested on: women diagnosed with uterine fibroids; assay: Study 15788: estradiol concentrations in serum, 1x12 weeks treatment
Method: Example 4: Clinical Study in Women Diagnosed with Uterine Fibroids During a 1×12 Weeks/84 Days Treatment with Compound 1
Study protocol (N^o 15788):
Doses: 0.5 mg, 1 mg, 2 mg, or 4 mg once daily
Route of administration: Oral
Duration of treatment: 1×12 weeks (84 days)
Women, 18 to 50 years old, with uterine fibroids documented by transvaginal or abdominal ultrasound at screening with at least 1 uterine fibroid with largest diameter 3 cm and Heavy Menstrual Bleeding (HMB) 80 mL were eligible for enrolment in the study.
Following screening visit 1 (Visit 1), there was a screening period of up to 90 days to arrange for complete results of all baseline assessments. […] Every effort was made to keep the duration of the screening period to a minimum.
Eligible subjects were equally randomized to one of the treatment groups (Placebo, 0.5 mg, 1 mg, 2 mg, or 4 mg Compound 1). Treatment was started during the first week of the menstrual cycle following randomization. The treatment period consisted of 12 weeks (84 days) of daily tablet intake.
In this study, estradiol levels were measured • At the End of Treatment (EoT) visit and • Randomization visit 3.

[3] = tested on: women diagnosed with uterine fibroids; assay: Study 17541/A1: hot flush events during treatment; conditions: Cp1 2.0 mg once daily oral, 24 weeks
Text: Example 7: Hot Flush Events in Study Subject Treated with Compound 1 (Cp1)
See full study description in Example 6.
Hot flush events were reported and monitored during treatment.

[4] = Cp1 0.5 mg once daily oral, End of Treatment (12 weeks)
[5] = Cp1 0.5 mg once daily oral, Randomization
[6] = Cp1 1 mg once daily oral, End of Treatment (12 weeks)
[7] = Cp1 1 mg once daily oral, Randomization
[8] = Cp1 2 mg once daily oral, End of Treatment (12 weeks)
[9] = Cp1 2 mg once daily oral, Randomization
[10] = Cp1 4 mg once daily oral, End of Treatment (12 weeks)
[11] = Cp1 4 mg once daily oral, Randomization

Hot flush events, Events (%) ([1]; Cp1 0.5 mg once daily oral): 5.6% | Hot flush events, Events (%) ([1]; Cp1 1.0 mg once daily oral): 11.1% | Hot flush events, Events (%) ([1]; Cp1 2.0 mg once daily oral): 17.6% | Hot flush events, Events (%) ([1]; Cp1 4.0 mg once daily oral): 29.4% | Severe hot flushes ([1]; all dose groups 0.5-4 mg): No severe hot flushes were reported | Subjects reporting hot flush, total study subjects ([1]; all dose groups 0.5-4 mg): 11 | Hot flush events, Events (%) [3]: no more than 11.4% | Hot flush events, Events (%) ([3]; listed as Cp1): 11.4%
SMILES: C[C@]12C[C@H](c3ccc(S(C)(=O)=O)cc3)C3=C4CCC(=O)C=C4CC[C@H]3[C@@H]1CC[C@@]2(O)C(F)(F)C(F)(F)F [Compound 1, (11β,17β)-17-Hydroxy-11-[4-(methylsulphonyl)phenyl]-17-(pentafluoroethyl)estra-4,9-dien-3-one]
Estradiol levels under treatment compared to baseline ([2]; 0.5-4 mg once daily, 12 weeks): moderately suppressed | Safety concerns from the data analysed ([2]; 0.5-4 mg once daily, 12 weeks): no safety concerns were identified | Estradiol concentrations in serum, Max [2, 4]: 357.5 pg/mL | Estradiol concentrations in serum, Mean [2, 4]: 97.3 pg/mL | Estradiol concentrations in serum, Median [2, 4]: 56.9 pg/mL | Estradiol concentrations in serum, Min [2, 4]: 8.3 pg/mL | Estradiol concentrations in serum, Max [2, 5]: 318.6 pg/mL | Estradiol concentrations in serum, Mean [2, 5]: 115.78 pg/mL | Estradiol concentrations in serum, Median [2, 5]: 100.2 pg/mL | Estradiol concentrations in serum, Min [2, 5]: 7.1 pg/mL | Estradiol concentrations in serum, Max [2, 6]: 384.9 pg/mL | Estradiol concentrations in serum, Mean [2, 6]: 72.85 pg/mL | Estradiol concentrations in serum, Median [2, 6]: 50 pg/mL | Estradiol concentrations in serum, Min [2, 6]: 11.8 pg/mL | Estradiol concentrations in serum, Median ([2]; Cp1 1 mg once daily oral, End of Treatment (12 weeks), listed as Cp1): 50.1 pg/mL | Estradiol concentrations in serum, Max [2, 7]: 490.2 pg/mL | Estradiol concentrations in serum, Mean [2, 7]: 120.72 pg/mL | Estradiol concentrations in serum, Median [2, 7]: 103.65 pg/mL | Estradiol concentrations in serum, Min [2, 7]: 21.5 pg/mL | Estradiol concentrations in serum, Max [2, 8]: 433.9 pg/mL | Estradiol concentrations in serum, Mean [2, 8]: 76.23 pg/mL | Estradiol concentrations in serum, Median [2, 8]: 50 pg/mL | Estradiol concentrations in serum, Min [2, 8]: 10.5 pg/mL | Estradiol concentrations in serum, Median ([2]; Cp1 2 mg once daily oral, End of Treatment (12 weeks), listed as Cp1): 49.95 pg/mL | Estradiol concentrations in serum, Max [2, 9]: 407.8 pg/mL | Estradiol concentrations in serum, Mean [2, 9]: 111.25 pg/mL | Estradiol concentrations in serum, Median [2, 9]: 96.6 pg/mL | Estradiol concentrations in serum, Min [2, 9]: 6.7 pg/mL | Estradiol concentrations in serum, Max [2, 10]: 255.3 pg/mL | Estradiol concentrations in serum, Mean [2, 10]: 56.51 pg/mL | Estradiol concentrations in serum, Median [2, 10]: 39 pg/mL | Estradiol concentrations in serum, Min [2, 10]: 9.5 pg/mL | Estradiol concentrations in serum, Median ([2]; Cp1 4 mg once daily oral, End of Treatment (12 weeks), listed as Cp1): 38.7 pg/mL | Estradiol concentrations in serum, Max [2, 11]: 347.6 pg/mL | Estradiol concentrations in serum, Mean [2, 11]: 117.05 pg/mL | Estradiol concentrations in serum, Median [2, 11]: 101.7 pg/mL | Estradiol concentrations in serum, Min [2, 11]: 6.8 pg/mL | Mean estradiol values after the EoT ([2]; all Doses, data not shown): returned to baseline levels

Source: patent US10485808B2, “Selective progesterone receptor modulators (SPRM) and stabilized estrogen level in patient” (BAYER PHARMA AKTIENGESELLSCHAFT, priority 2017, dated 2019)
